These results are taken from US9546150B2, “Substituted quinazolin-4-ones for inhibiting ubiquitin specific protease 7” (HYBRIGENICS SA, priority 2011, dated 2017).

One assay addresses T1, Caspase 3 (Homo sapiens, UniProt P42574).
T1 sequence (P42574 29-175 limits assumed): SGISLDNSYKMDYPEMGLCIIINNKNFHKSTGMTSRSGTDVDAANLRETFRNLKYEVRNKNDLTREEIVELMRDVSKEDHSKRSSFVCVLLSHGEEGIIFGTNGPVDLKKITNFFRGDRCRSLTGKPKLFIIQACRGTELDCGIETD
T1 sequence (P42574 176-277 limits assumed): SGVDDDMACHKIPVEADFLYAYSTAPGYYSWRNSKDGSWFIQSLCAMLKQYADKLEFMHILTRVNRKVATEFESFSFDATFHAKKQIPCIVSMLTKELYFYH
Put plainly: Caspase 3 activity assay, Ac-DEVD-AMC substrate. The format is biochemical. The note with it: Ac-DEVD-AMC 250 nM, Caspase 3 1.6 nM. On the procedure: Caspase 3 was diluted in Caspase 3 buffer (100 mM Hepes pH 7.5; 10% sucrose; 0.1% CHAPS). Compounds stocks (100 mM) were stored at −20° C. in DMSO. Compounds were tested at different concentrations: from 200 μM to 91 nM.
Reactions were performed as duplicates in Black 384 well plates (small volume microplates; Greiner; 10 μl final reaction volume). The substrate concentration for caspase 3 specificity assay was 250 nM (Ac-DEVD-AMC; Promega). The concentration of the enzyme (Caspase 3) in specificity assays was 1.6 nM. The concentrations were determined in order to perform specificity assays under initial velocities at fixed substrate concentration. Compounds were pre-incubated with enzymes for 30 minutes at 25° C. Reactions were initiated by addition of substrate to the plates containing the enzymes (+/− compounds) diluted in assay buffer. Reactions were incubated for 60 minutes at 37° C. Reactions were stopped by adding acetic acid (100 mM final). Readings were performed on a Pherastar Fluorescent Reader (BMG). λ Emission 380 nm; λ Excitation=460 nm.

A further assay addresses T2, USP5 (Homo sapiens, UniProt P45974).
T2 sequence (P45974 1-858): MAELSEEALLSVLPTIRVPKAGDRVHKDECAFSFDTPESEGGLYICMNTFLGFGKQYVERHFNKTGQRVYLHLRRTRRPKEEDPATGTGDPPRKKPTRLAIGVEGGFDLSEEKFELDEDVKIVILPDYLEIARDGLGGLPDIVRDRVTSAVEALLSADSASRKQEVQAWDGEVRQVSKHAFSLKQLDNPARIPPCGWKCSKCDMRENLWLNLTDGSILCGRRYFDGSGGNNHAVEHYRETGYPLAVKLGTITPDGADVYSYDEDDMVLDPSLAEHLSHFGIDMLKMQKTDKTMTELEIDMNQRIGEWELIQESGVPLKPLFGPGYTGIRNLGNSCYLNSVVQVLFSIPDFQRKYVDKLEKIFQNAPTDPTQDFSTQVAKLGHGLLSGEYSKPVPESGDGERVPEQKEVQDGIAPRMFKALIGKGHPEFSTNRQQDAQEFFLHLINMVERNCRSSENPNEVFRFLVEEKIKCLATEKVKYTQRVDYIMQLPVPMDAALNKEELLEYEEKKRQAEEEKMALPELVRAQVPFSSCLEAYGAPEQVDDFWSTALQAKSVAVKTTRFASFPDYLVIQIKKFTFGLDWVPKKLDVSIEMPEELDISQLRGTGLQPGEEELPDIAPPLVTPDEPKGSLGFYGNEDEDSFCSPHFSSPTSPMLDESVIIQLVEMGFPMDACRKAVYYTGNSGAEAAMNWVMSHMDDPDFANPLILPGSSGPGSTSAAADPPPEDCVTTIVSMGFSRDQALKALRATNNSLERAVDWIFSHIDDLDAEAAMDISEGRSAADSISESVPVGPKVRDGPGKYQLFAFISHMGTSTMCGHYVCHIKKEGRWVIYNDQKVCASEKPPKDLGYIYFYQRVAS
Put plainly: USP5 activity assay, Ub-AMC substrate. The class given is biochemical. The note with it: UbAMC substrate 300 nM, USP5 300 pM. On the procedure:
USP5 was diluted in USP buffer (50 mM Tris HCl; 0.5 mM EDTA; 5 mM DTT; 0.01% Triton X-100; Bovine Serum Albumin 0.05 mg·ml^−1 pH 7.6). Compounds stocks (100 mM) were stored at −20° C. in DMSO.
Reactions were performed as duplicates in Black 384 well plates (small volume microplates; Greiner; 10 μl final reaction volume). The substrate concentration for USP5 was 300 nM Ub-AMC (Boston Biochem). The concentrations of the enzyme (USP5) in specificity assays was 300 pM. The concentrations were determined in order to perform specificity assays under initial velocities at fixed substrate concentration. Compounds were pre-incubated with enzymes for 30 minutes at 25° C. Reactions were initiated by addition of substrate to the plates containing the enzymes (+/− compounds) diluted in assay buffer. Reactions were incubated for 60 minutes at 37° C. Reactions were stopped by adding acetic acid (100 mM final). Readings were performed on a Pherastar Fluorescent Reader (BMG). λ Emission 380 nm; λ Excitation=460 nm.

Molecules are shown by their SMILES. Where only a bound is given, the exact number is not on record here.

Turning to `CC(Cc1cccs1)C(=O)N1CCC(O)(Cn2cnc3cc(Cl)ccc3c2=O)CC1` (stereo not shown) [Example 11, 7-chloro-3-({4-hydroxy-1-[2-methyl-3-(thiophen-2-yl)propanoyl]piperidin-4-yl}methyl)-3,4-dihydroquinazolin-4-one], the 50% inhibitory concentration (IC50) on Caspase 3 and at USP5 was greater than 200 µM throughout.
For `CCC(CC)C(=O)N1CCC(O)(Cn2cnc3cc(Cl)ccc3c2=O)CC1` [Example 9, 7-chloro-3-{[1-(2-ethylbutanoyl)-4-hydroxypiperidin-4-yl]methyl}-3,4-dihydroquinazolin-4-one], the concentration for half-maximal inhibition (IC50) against Caspase 3 and at USP5 was greater than 200 µM throughout.
On to `O=C(CCc1cccs1)N1CCC(O)(Cn2cnc3ccccc3c2=O)CC1` [Example 12, 3-({4-hydroxy-1-[3-(thiophen-2-yl)propanoyl]piperidin-4-yl}methyl)-3,4-dihydroquinazolin-4-one], for which the IC50 at Caspase 3 and at USP5 was greater than 200 µM in each case.
In the case of `COc1cc2ncn(CC3(O)CCN(C(=O)C(C)C)CC3)c(=O)c2cc1OC` [Example 7, 3-{[4-hydroxy-1-(2-methylpropanoyl)piperidin-4-yl]methyl}-6,7-dimethoxy-3,4-dihydroquinazolin-4-one], the IC50 on Caspase 3 and on USP5 was greater than 200 µM each time.
At Caspase 3, `O=C(CCc1ccccc1)N1CCC(O)(Cn2cnc3cc(Cl)ccc3c2=O)CC1` [Example 2, 7-chloro-3-{[4-hydroxy-1-(3-phenylpropanoyl)piperidin-4-yl]methyl}-3,4-dihydroquinazolin-4-one] displayed an IC50 greater than 200 µM.
Regarding `O=C(CCC1CCCC1)N1CCC(O)(Cn2cnc3cc(Cl)ccc3c2=O)CC1` [Example 4, 7-chloro-3-{[1-(3-cyclopentylpropanoyl)-4-hydroxypiperidin-4-yl]methyl}-3,4-dihydroquinazolin-4-one], the half-maximal inhibitory concentration (IC50) against Caspase 3 and against USP5 was greater than 200 µM in each case.
With `CC(Cc1ccccc1)C(=O)N1CCC(O)(Cn2cnc3cc(Cl)ccc3c2=O)CC1` (stereo not shown) [Example 14, 3-{[1-(2-benzylpropanoyl)-4-hydroxypiperidin-4-yl]methyl}-7-chloro-3,4-dihydroquinazolin-4-one], the IC50 against Caspase 3 and on USP5 was greater than 200 µM in each case.
For `CC(C)C(=O)N1CCC(O)(Cn2cnc3ccccc3c2=O)CC1` [Example 6, 3-{[4-hydroxy-1-(2-methylpropanoyl)piperidin-4-yl]methyl}-3,4-dihydroquinazolin-4-one], the IC50 against Caspase 3 and on USP5 was greater than 200 µM in each case.
On to `O=C(CCc1ccccc1)N1CCC(O)(Cn2cnc3ccccc3c2=O)CC1` [Example 1, 3-{[4-hydroxy-1-(3-phenylpropanoyl)piperidin-4-yl]methyl}-3,4-dihydroquinazolin-4-one], for which the 50% inhibitory concentration (IC50) at Caspase 3 and at USP5 was greater than 200 µM each time.
As to `CC(Cc1ccccc1)C(=O)N1CCC(O)(Cn2cnc3ccccc3c2=O)CC1` (stereo not shown) [Example 13, 3-{[1-(2-benzylpropanoyl)-4-hydroxypiperidin-4-yl]methyl}-3,4-dihydroquinazolin-4-one], the half-inhibitory concentration (IC50) against Caspase 3 and against USP5 was greater than 200 µM each time.
As for `CC(Cc1cccs1)C(=O)N1CCC(O)(Cn2cnc3ccccc3c2=O)CC1` (stereo not shown) [Example 5, 3-({4-hydroxy-1-[2-methyl-3-(thiophen-2-yl)propanoyl]piperidin-4-yl}methyl)-3,4-dihydroquinazolin-4-one], the IC50 against Caspase 3 and on USP5 was greater than 200 µM in each case.
Turning to `O=C(CCC1CCCC1)N1CCC(O)(Cn2cnc3ccccc3c2=O)CC1` [Example 3, 3-{[1-(3-cyclopentylpropanoyl)-4-hydroxypiperidin-4-yl]methyl}-3,4-dihydroquinazolin-4-one], the 50% inhibitory concentration (IC50) at Caspase 3 and on USP5 was greater than 200 µM each time.
Take `COc1ccccc1CCC(=O)N1CCC(O)(Cn2cnc3ccccc3c2=O)CC1` [Example 10, 3-({4-hydroxy-1-[3-(2-methoxyphenyl)propanoyl]piperidin-4-yl}methyl)-3,4-dihydroquinazolin-4-one]: the IC50 on Caspase 3 and at USP5 was greater than 200 µM each time.

By IC50 is commonly meant the midpoint of a concentration-inhibition curve.
